Reference: patent US6692753B2, “Potentiation of the immune response” (priority 1997, dated 2004)
“Also recorded” adds a separate entry of the source.

Legend:
[1] = test system: PBMC from HIV-infected individuals; assay: Proliferation of PBMC from HIV-infected individuals, 3H thymidine incorporation; assay type: cell-based, human; conditions: for stimulation of proliferation: higher doses (10^−4M), PBMC of HIV-infected patients; for stimulation of proliferation (incorporation of 3H thymidine, cpm): very low / low doses, PBMC from HIV-infected patients, in vitro
Source text: If desired, additional in vitro assays can be carried out using candidate compounds of the invention, prior to their use in vivo. One such assay employs the candidate compound at a very low concentration, in a test designed to determine whether at low concentrations the compound can stimulate the proliferation of PBMC from HIV infected patients in vitro. As is shown in the data of FIG. 4, stimulation can be measured by, e.g., incorporation of a labelled nucleotide. Peripheral blood mononuclear cells (PBMC) were obtained by standard methods from HIV-infected individuals, and from uninfected individuals. Varying dosages of KBP or VBP were contacted with the PBMC in vitro, and stimulation of proliferation was measured by incorporation of ^3H thymidine (cpm).

CD4/CD8+ T cells = assay: Cell death of purified resting T-cells, 7AAD flow cytometry; assay type: cell-based, human; conditions: overnight incubation, 10^−4M or 10^−6M
Experimental: CD19+B cells and CD4/CD8+ T cells were isolated (>90% and >97% purity, respectively). The cells were then incubated overnight in the presence or absence of VBP (10^−4M or 10^−6M). The amount of death induced by VBP treatment was determined by 7AAD flow cytometry analysis. The data represents the mean percent of death from duplicate samples.
The amount of cell death was determined by 7AAD flow cytometry analysis. Data represent % of cell death from duplicate samples.

[2] = test system: cytoplasmic T-cell enzyme (post-prolyl dipeptidase) in Jurkat T-cell cytoplasmic extract; assay: Enzymatic activity of Jurkat T-cell cytoplasmic extract, fluorescent cleavage of Ala-ProAFC; assay type: biochemical, human; conditions: varying concentrations
Experimental: A suitable enzyme-containing cell extract can be prepared as follows. First, Jurkat cells (10^6-10^11 cells) are grown and a cell pellet is obtained by centrifugation. The cell pellet is stored in frozen condition.
For use in the assay, the frozen pellet is thawed by the addition of ice cold lysis buffer, in the amount of approximately 1 ml per 10^8 cells. The liquified material is homogenized with ten strokes of a Dounce homogenizer, and then clarified by centrifugation at 1500 g. The supernatant is removed (and saved), and the 1500 g. pellet is resuspended in lysis buffer and homogenized with ten strokes of a Dounce homogenizer. Clarification is again carried out by centrifugation at 1500 g, 4° C.
The 1500 g supernatants are then combined, and EDTA is added to 5mM. The resultant liquid is centrifuged at 75,000 g at 4° C. for twenty minutes, and the supernatant is then removed and centrifuged at 175,000 g. at 4° C., for 60 minutes. […]
In the assay we carried out, we employed a fluorescence spectrometer for excitation at 400 nm and emission at 505 nm. […]
In the test samples, multiple samples are run containing varying concentrations, down to 10^−8 M, of the test compound. […] Enzymatic activity is measured as the accumulation of fluoresence intensity (i.e., substrate cleavage product) over time (1 min.).

[3] = test system: CD26+ and CD26− PBMC populations; assay: Cell death of sorted CD26+ and CD26− PBMC populations, 7AAD flow cytometry; assay type: cell-based, human; conditions: overnight, various (moderate) concentrations
Experimental: PBMC were stained with the anti-CD26 monoclonal antibody, 4 EL, and then sorted into CD26^+ and CD26^− populations using a facstar plus dual lasar flow cytometry. The cells expressing the highest level )top 5%) of CD26 and the cells expressing the lowest level (bottom 10%) of CD26 were isolated as the CD26^+ and CD26^− populations respectively. […] The CD26^+ and CD26^− populations were cultured overnight in the presence or absence of various concentrations of VBP. The amount of death induced by VBP treatment was determined by 7AAD flow cytometry analysis. Data represent mean percent of death from duplicate samples +/−SD.
The amount of cell death was determined by 7AAD flow cytometry analysis. Data represent mean % of death from duplicate samples.

Row | SMILES | stimulation of proliferation [1] | stimulation of proliferation (incorporation of 3H thymidine, cpm) [1] | cell death / apoptosis (7AAD) (CD4/CD8+ T cells) | cell death / apoptosis (7AAD) (CD4/CD8+ T cells; listed as VBP) | inhibition of enzymatic activity (AFC release from Ala-ProAFC) [2] | inhibition of enzymatic activity (AFC release from Ala-ProAFC) ([2]; listed as val-boroPro) | cell death / apoptosis (7AAD) [3] | cell death / apoptosis (7AAD) ([3]; listed as VBP)
1 | NCCCC[C@H](N)C(=O)N1CCC[C@H]1B(O)O [Lys-boroPro] | do not have this effect | stimulated proliferation; also recorded: cause proliferation | – | – | – | – | – | –
2 | CC(C)[C@H](N)C(=O)N1CCC[C@H]1B(O)O [Val-boroPro] | do not have this effect | stimulated proliferation; also recorded: cause proliferation | highly sensitive | dose-dependent apoptosis | inhibited | inhibited the cytoplasmic enzyme | equally susceptible | dose-dependent apoptosis in both CD26^+ and CD26^− populations; also recorded: equally susceptible
